The values that follow come from article PMC3666932 (Archives of pharmacal research, 2012).

As a reminder, the IC50 is the midpoint of a concentration-inhibition curve.

For data set [1], the system named is T. cruzi epimastigotes. Conditions: ref Ramos et al., 2009; cited from earlier work.
In data set [2] the test system is T. cruzi epimastigotes (Tulahuen CL98 strain). The experiment in a line: Antitrypanosomal activity assay. It counts as cell-based, Trypanosoma cruzi. Conditions: for Selectivity index (Cytotoxicity/ Activity): ratio of IC50 for fibroblast cells/ IC50 for parasites; for IC50: Trypanosoma cruzi, TULAHUEN, 48 h, read-out: Antitrypanocidal activity IC50.
A short description of data set [3]: Cytotoxicity assay. It counts as cell-based. Conditions: mouse, Balb/C 3T3 mouse fibroblasts (clone A31).
Data set [4] in a line: Antitrypanosomal activity assay. It counts as cell-based, Trypanosoma cruzi. Conditions: mouse (fibroblasts) / Trypanosoma cruzi (parasites).

Regarding `O=C1C(c2ccccc2)=C(c2ccccc2)C(=O)c2ccccc21` [DPNQ, 2,3-diphenyl-1,4-naphthoquin-one], in data set [1], the LD50 was 2.5 µM.

For the compound `O=C1C(Cl)=C(N2C(=O)CCC2=O)C(=O)c2ccccc21` [IMDNQ1], the “Selectivity index (Cytotoxicity/ Activity)” value (“Selectivity index” for short) in data set [2] is given as 60.25 ± 2.79.

In the case of `O=C1C(Cl)=C(N2C(=O)c3ccccc3C2=O)C(=O)c2ccccc21` [IMDNQ2], the “Selectivity index” value in data set [2] stood at 53.97 ± 5.95.

For the compound `CCCC(=O)N(C(=O)CCC)C1=C(Cl)C(=O)c2ccccc2C1=O` [IMDNQ3], the “Selectivity index” value in data set [2] is 31.83 ± 3.17.

Regarding `O=C1C(Cl)=C(N2C(=O)COCC2=O)C(=O)c2ccccc21` [IMDNQ4], the “Selectivity index” value in data set [2] is on record as 7.43 ± 0.97.

For the compound `O=C1C(Br)=C(N(C(=O)c2ccc(F)cc2)C(=O)c2ccc(F)cc2)C(=O)c2ccccc21` [IMDNQ5, N-(3-Bromo-1,4-dioxo-1,4-dihydronaphthalen-2-yl)-4-fluoro-N-(4-fluorobenzoyl)-benzamide], in data set [2], the half-inhibitory concentration (IC50) was 2.27 ± 0.15 µM. This compound also yielded an IC50 at 48 h in data set [3] of 12.8 ± 0.73 µM.

For the compound `O=C1C(Br)=C(N(C(=O)c2ccccc2Cl)C(=O)c2ccccc2Cl)C(=O)c2ccccc21` [IMDNQ6, N-(3-Bromo-1,4-dioxo-1,4-dihydronaphthalen-2-yl)-2-chloro-N-(2-chlorobenzoyl)-benzamide], half-maximal inhibition in data set [3] (IC50 at 48 h) was put at 14.2 ± 1.42 µM.

In the case of `O=C1C(Cl)=C(N(C(=O)c2ccccc2Cl)C(=O)c2ccccc2Cl)C(=O)c2ccccc21` [IMDNQ8, 2-Chloro-N-(2-chlorobenzoyl)-N-(3-chloro-1,4-dioxo-1,4-dihydronaphthalen-2-yl)-benzamide], in data set [2], the IC50 is 2.67 ± 0.33 µM. The IC50 at 48 h in data set [3] was 26.5 ± 1.61 µM.

Turning to `O=C1C(Cl)=C(N(C(=O)c2ccc(F)cc2)C(=O)c2ccc(F)cc2)C(=O)c2ccccc21` [IMDNQ9, N-(3-Chloro-1,4-dioxo-1,4-dihydronaphthalen-2-yl)-4-fluoro-N-(4-fluorobenzoyl)-benzamide], the IC50 in data set [2] was 4.07 ± 0.23 µM. This compound also displayed an IC50 at 48 h in data set [3] of 21.8 ± 1.88 µM.

On to `O=C1C(Cl)=C(N(C(=O)c2cccc(Cl)c2)C(=O)c2cccc(Cl)c2)C(=O)c2ccccc21` [IMDNQ10, 3-Chloro-N-(3-chlorobenzoyl)-N-(3-chloro-1,4-dioxo-1,4-dihydronaphthalen-2-yl)-benzamide], for which the selectivity ratio at 48 h in data set [4] was determined as 275 ± 13.7. For the same compound, the IC50 in data set [2] stood at 2.23 ± 0.15 µM.

Take `O=C1C(Cl)=C(N(C(=O)CCl)C(=O)CCl)C(=O)c2ccccc21` [IMDNQ11]: the “Selectivity index” value in data set [2] worked out at 3.20 ± 0.44.

Consider `CC1CS(=O)(=O)CCN1/N=C/c1ccc([N+](=O)[O-])o1` (stereo not shown) [Nifurtimox, reference compound], for which the IC50 in data set [2] was 10.7 ± 1.01 µM.
